According to patent US20240018121A1, “NOVEL HETEROAROMATIC COMPOUNDS EXHIBITING ANTIFUNGAL ACTIVITY AND THEIR METHOD OF USE” (FOX CHASE CHEMCIAL DIVERSITY CENTER, INC., priority 2020, published 2024):
Converted amounts (≈) assume the structure as drawn. Where a name gives a salt, the structure may show the parent alone. Read-outs that look alike come from different tables or passages of the source.

Tests used:
Type in all cases: cell-based
[1] = system: Aspergillus flavus AFL1 (ATCC MYA-3631); assay: Fungal MIC Protocol, Aspergillus flavus; conditions: Aspergillus flavus, read-out: MIC Aspergillus flavus 3631
Summary of the method: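 Aspergillus flavus spores were grown on Potato Dextrose Agar at 35° C. for 3-5 days, harvested in PBS pH 7.4+0.1% Tween-20 with glass beads, and diluted in RPMI/MOPS to an OD530 of 0.002 (about 2×10^4 cfu/mL). 50 ul of spores were combined with 50 μl of serially diluted compound in 96-well round bottom plates and incubated at 35° C. for 48 hours.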

[2] = system: Aspergillus fumigatus T33439 (ATCC MYA-3626); assay: Fungal MIC Protocol, Aspergillus fumigatus; conditions: Aspergillus fumigatus, read-out: MIC Aspergillus fumigatus 3626
Summary of the method: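 Aspergillus fumigatus was grown on Potato Dextrose Agar at 35° C. for 3-5 days, and spores were collected with PBS pH 7.4+0.1% Tween-20 plus glass beads. Spores were diluted in RPMI/MOPS to OD530 0.002 (about 2×10^4 cfu/mL). 50 ul was added to 50 μl of serially diluted compound in round bottom 96-well plates, run in duplicate, and incubated at 35° C. for 48 hours.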

[3] = system: Fusarium falciforme FS1 (ATCC MYA-3636); assay: Fungal MIC Protocol, Fusarium falciforme; conditions: Fusarium falciforme, read-out: MIC Fusarium falciforme 3636
Summary of the method: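 Fusarium falciforme spores were raised on Potato Dextrose Agar at 35° C. for 3-5 days, collected in PBS pH 7.4+0.1% Tween-20 with glass beads, and diluted in RPMI/MOPS pH 7.0 to OD530 0.005 (about 2×10^4 cfu/mL). 50 ul spores were added to 50 μl duplicate serial compound dilutions in round bottom 96-well plates and incubated at 35° C. for 48 hours.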

[4] = system: Fusarium solani (ATCC 58877); assay: Fungal MIC Protocol, Fusarium solani; conditions: Fusarium solani, read-out: MIC Fusarium solani 58877
Summary of the method: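 Fusarium solani spores were grown on Potato Dextrose Agar in tissue culture flasks at 35° C. for 3-5 days, harvested with PBS pH 7.4+0.1% Tween-20 and glass beads, and diluted in RPMI/MOPS to an OD530 of 0.005 (about 2×10^4 cfu/mL). Equal 50 ul volumes of spores and serially diluted compound were combined in 96-well round bottom plates and incubated 48 hours at 35° C.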

[5] = system: Mucor circinelloides 1463(62) (ATCC 26759); assay: Fungal MIC Protocol, Mucor circinelloides (MIC-50); conditions: Mucor circinelloides, read-out: MIC-50 Mucorales circinelloides 26579
Summary of the method: (§1)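 MIC-type endpoint: >50% growth inhibition, judged by eye with an inverted mirror. Spores in RPMI/MOPS (pH 7.0, ~2×10^4 cfu/mL) were incubated 48 hours at 35° C with duplicate serial compound dilutions.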

[6] = system: Mucor ramosissimus 057718 (ATCC 90286); assay: Fungal MIC Protocol, Mucor ramosissimus (MIC-50); conditions: Mucor ramosissimus, read-out: MIC-50 Mucorales ramosissimus 90286
Summary of the method: as §1

[7] = system: Candida albicans GDH2346; assay: Candida Minimal Inhibitory Concentration (MIC); conditions: Candida albicans, read-out: MIC-50 Candida albicans GDH2346
Protocol: Candida Minimal Inhibitory Concentration (MIC): RPMI/MOPS media is prepared by dissolving 8.4 g RPMI 1640, 34.52 g MOPS buffer and 2 g glucose in 900 mL water. The pH is adjusted to 7.0 with NaOH. The total volume is brought to 1 L and the resulting solution is filter sterilized. The Candida stock is streaked on a Yeast extract Peptone Dextrose (YPD) agar plate and grown at 35° C. for isolation of single colonies. Compounds of the disclosure are diluted to 200 μg/mL in RPMI/MOPS (4.8 ul of 10 mg/mL DMSO stock in 240 ul media). Ten (10) 1:2 serial dilutions are prepared in RPMI/MOPS in a 96-well round bottom plate. Fifty (50) μl of compound dilutions are transferred in duplicate to a sterile tissue culture-treated 96-well flat-bottom, black-sided polypropylene plate. A single colony of Candida from the YPD plate is re-suspended in 5 mL phosphate buffered saline (BS) and optical density (OD) at 600 nm is measured. The suspension is adjusted to OD=1.0 and a 1:1000 dilution is prepared in RPMI/MOPS. Fifty (50) ul aliquots of the diluted yeast are added to the plates containing 50 μL of compound to all wells except 12E-H. Control wells include: 12 A-D cells, no compound and 12 E-H no cells, no compound. The plates are mixed gently by hand and placed in Ziplok bags in a 35° C. incubator. The OD600 is measured at 24 and 48 hours.

[8] = 100% growth inhibition at 48 hours
[9] = ATCC58877, 100% growth inhibition at 48 hours
[10] = ATCC26759, 50% growth inhibition at 48 hours
[11] = ATCC90286, 50% growth inhibition at 48 hours
[12] = GDH2346, 50% growth inhibition at 48 hours

Structure (SMILES) | MIC [1, 8] | MIC [2, 8] | MIC [3, 8] | MIC [4, 9] | MIC50 [5, 10] | MIC50 [6, 11] | MIC50 [7, 12] | MIC ([1]; 48 h) | MIC ([2]; 48 h) | MIC ([3]; 48 h) | MIC ([4]; ATCC58877, 48 h) | MIC50 ([5]; ATCC26759, 48 h) | MIC50 ([6]; ATCC90286, 48 h) | MIC50 ([7]; GDH2346, 48 h)
COCCn1c(-c2ccc(C3=CCN(C(=N)N)CC3)cc2)nnc1-c1ccc(C2=CCN(C(=N)N)CC2)cc1 [Example 67, 4-(4-{5-[4-(1-carbamimidoyl-1,2,3,6-tetrahydropyridin-4-yl)phenyl]-4-(2-methoxyethyl)-4H-1,2,4-triazol-3-yl}phenyl)-1,2,3,6-tetrahydropyridine-1-carboximidamide trifluoroacetate] | – | – | – | – | – | – | – | 0.1 µg/mL | 0.1 µg/mL | 0.05 µg/mL | 0.05 µg/mL | 0.39 µg/mL | 1.56 µg/mL | 0.2 µg/mL
Cn1c(-c2ccc(C3=CCC(C(=N)N)CC3)cc2F)nnc1-c1ccc(C2=CCC(C(=N)N)CC2)cc1F (stereo not drawn) [Example 87, 4-(4-{5-[4-(4-carbamimidoylcyclohex-1-en-1-yl)-2-fluorophenyl]-4-methyl-4H-1,2,4-triazol-3-yl}-3-fluorophenyl)cyclohex-3-ene-1-carboximidamide trifluoroacetate] | – | – | – | – | – | – | – | 0.78 µg/mL | 0.2 µg/mL | 0.1 µg/mL | 0.2 µg/mL | 0.39 µg/mL | 3.13 µg/mL | 0.2 µg/mL
Cc1cc(C2=CCN(C(=N)N)CC2)ccc1-c1nnc(-c2ccc(C3=CCN(C(=N)N)CC3)cc2)o1 [Example 43, 4-(4-(5-(4-(1-Carbamimidoyl-1,2,3,6-tetrahydropyridin-4-yl)-2-methylphenyl)-1,3,4-oxadiazol-2-yl)phenyl)-5,6-dihydropyridine-1(2H)-carboximidamide] | 0.31 µg/mL (≈ 0.642 µM) | 0.78 µg/mL (≈ 1.62 µM) | 0.2 µg/mL (≈ 0.414 µM) | 0.78 µg/mL (≈ 1.62 µM) | 12.5 µg/mL (≈ 25.9 µM) | 25 µg/mL (≈ 51.8 µM) | 0.39 µg/mL (≈ 0.808 µM) | – | – | – | – | – | – | –
Cn1c(-c2ccc(C3=CCN(C(=N)N)CC3)cc2)nnc1-c1ccc(C2=CCN(C(=N)N)CC2)cc1F [Example 78, 4-(4-{5-[4-(1-carbamimidoyl-1,2,3,6-tetrahydropyridin-4-yl)-2-fluorophenyl]-4-methyl-4H-1,2,4-triazol-3-yl}phenyl)-1,2,3,6-tetrahydropyridine-1-carboximidamide trifluoroacetate] | – | – | – | – | – | – | – | 0.1 µg/mL | 0.05 µg/mL | 0.05 µg/mL | 0.1 µg/mL | 0.2 µg/mL | 0.78 µg/mL | 0.2 µg/mL
N=C(N)N1CC=C(c2ccc(-c3nnc(-c4ccc(C5=CCN(C(=N)N)CC5)cc4)o3)cc2)CC1 [Example 41, 4-(4-{5-[4-(1-Carbamimidoyl-1,2,3,6-tetrahydropyridin-4-yl)phenyl]-1,3,4-oxadiazol-2-yl}phenyl)-1,2,3,6-tetrahydropyridine-1-carboximidamide] | 3.13 µg/mL (≈ 6.68 µM) | 3.13 µg/mL (≈ 6.68 µM) | 0.39 µg/mL (≈ 0.832 µM) | 6.25 µg/mL (≈ 13.3 µM) | 100 µg/mL (≈ 213 µM) | 100 µg/mL (≈ 213 µM) | 0.39 µg/mL (≈ 0.832 µM) | – | – | – | – | – | – | –
N=C(N)N1CC=C(c2ccc(-c3nnc(-c4ccc(C5=CCN(C(=N)N)CC5)c(F)c4)o3)cc2F)CC1 [Example 49, 4,4′-(4,4′-(1,3,4-oxadiazole-2,5-diyl)bis(2-fluoro-4,1-phenylene)) bis(5,6-dihydropyridine-1(2H)-carboximidamide)] | 0.78 µg/mL (≈ 1.55 µM) | 3.13 µg/mL (≈ 6.2 µM) | < 0.1 µg/mL | 3.13 µg/mL (≈ 6.2 µM) | 1.56 µg/mL (≈ 3.09 µM) | 25 µg/mL (≈ 49.5 µM) | 1.56 µg/mL (≈ 3.09 µM) | – | – | – | – | – | – | –
Cc1cc(C2=CCN(C(=N)N)CC2)ccc1-c1nnc(-c2ccc(C3=CCN(C(=N)N)CC3)cc2C)n1C [Example 22, 4,4′-(4,4′-(4-Methyl-4H-1,2,4-triazole-3,5-diyl)bis(3-methyl-4,1-phenylene))bis(5,6-dihydropyridine-1(2H)-carboximidamide)] | 0.39 µg/mL (≈ 0.765 µM) | 0.78 µg/mL (≈ 1.53 µM) | 0.78 µg/mL (≈ 1.53 µM) | 0.2 µg/mL (≈ 0.392 µM) | 1.56 µg/mL (≈ 3.06 µM) | 6.25 µg/mL (≈ 12.3 µM) | 0.16 µg/mL (≈ 0.314 µM) | – | – | – | – | – | – | –

Second part, led by results:

MIC [1, 8] | MIC [2, 8] | MIC [3, 8] | MIC [4, 9] | MIC50 [5, 10] | MIC50 [6, 11] | MIC50 [7, 12] | Structure (SMILES) | MIC ([1]; 48 h) | MIC ([2]; 48 h) | MIC ([3]; 48 h) | MIC ([4]; ATCC58877, 48 h) | MIC50 ([5]; ATCC26759, 48 h) | MIC50 ([6]; ATCC90286, 48 h) | MIC50 ([7]; GDH2346, 48 h)
< 0.1 µg/mL | < 0.1 µg/mL | < 0.1 µg/mL | 6.25 µg/mL (≈ 11.2 µM) | < 0.1 µg/mL | 1.56 µg/mL (≈ 2.79 µM) | 0.39 µg/mL (≈ 0.697 µM) | CC(C)Cn1c(-c2ccc(C3=CCN(C(=N)N)CC3)cc2F)nnc1-c1ccc(C2=CCN(C(=N)N)CC2)cc1F [Example 14] | – | – | – | – | – | – | –
0.2 µg/mL (≈ 0.365 µM) | < 0.1 µg/mL | < 0.1 µg/mL | < 0.1 µg/mL | 0.39 µg/mL (≈ 0.712 µM) | 3.13 µg/mL (≈ 5.72 µM) | 0.2 µg/mL (≈ 0.365 µM) | N=C(N)N1CC=C(c2ccc(-c3nnc(-c4ccc(C5=CCN(C(=N)N)CC5)cc4F)n3CCO)c(F)c2)CC1 [Example 57, 4,4′-(4,4′-(4-(2-Hydroxyethyl)-4H-1,2,4-triazole-3,5-diyl)bis(3-fluoro-4,1-phenylene))bis(5,6-dihydropyridine-1(2H)-carboximidamide)] | – | – | – | – | – | – | –
< 0.1 µg/mL | < 0.1 µg/mL | < 0.1 µg/mL | < 0.1 µg/mL | 0.78 µg/mL (≈ 1.47 µM) | 1.56 µg/mL (≈ 2.93 µM) | < 0.1 µg/mL | CCn1c(-c2ccc(C3=CCN(C(=N)N)CC3)cc2F)nnc1-c1ccc(C2=CCN(C(=N)N)CC2)cc1F [Example 10, 4,4′-(4,4′-(4-Ethyl-4H-1,2,4-triazole-3,5-diyl)bis(3-fluoro-4,1-phenylene)) bis(5,6-dihydropyridine-1(2H)-carboximidamide)] | – | – | – | – | – | – | –
0.2 µg/mL (≈ 0.415 µM) | 0.39 µg/mL (≈ 0.81 µM) | 0.39 µg/mL (≈ 0.81 µM) | 0.39 µg/mL (≈ 0.81 µM) | 0.39 µg/mL (≈ 0.81 µM) | 6.25 µg/mL (≈ 13 µM) | 0.78 µg/mL (≈ 1.62 µM) | Cc1cc(-c2cn(-c3ccc(C4=CCN(C(=N)N)CC4)cc3)nn2)ccc1C1=CCN(C(=N)N)CC1 [Example 37, 4-(4-(4-(4-(1-Carbamimidoyl-1,2,3,6-tetrahydropyridin-4-yl)-3-methylphenyl)-1H-1,2,3-triazol-1-yl)phenyl)-5,6-dihydropyridine-1(2H)-carboximidamide] | – | – | – | – | – | – | –
0.1 µg/mL (≈ 0.208 µM) | < 0.05 µg/mL | < 0.05 µg/mL | 0.78 µg/mL (≈ 1.62 µM) | 0.2 µg/mL (≈ 0.415 µM) | 0.78 µg/mL (≈ 1.62 µM) | < 0.2 µg/mL | Cn1c(-c2ccc(C3=CCN(C(=N)N)CC3)cc2)nnc1-c1ccc(C2=CCN(C(=N)N)CC2)cc1 [Example 1, 4,4-(4,4-(4-Methyl-4H-1,2,4-triazole-3,5-diyl)bis(4,1-phenylene))bis(5,6-dihydropyridine-1(2H)-carboximidamide)] | – | – | – | – | – | – | –
